Data published in US20220023386A1, “METHOD FOR THE TREATMENT OR PREVENTION OF OSTEOARTHRITIS” (Chondropeptix B.V., priority 2016, published 2022).

Key:
Test in all cases: Expression of OA chondrocyte phenotype marker genes by RT-qPCR after peptide exposure
Format in all cases: cell-based, human
[1] = test system: OA articular chondrocytes; parameters: key: [+] denotes a significantly increased expression of chondrogenic marker BAPX1/NKX3.2 or a decreased expression of OA chondrocyte phenotypic markers ALP, MMP13, ADAMTS5, COX2, COL10A and RUNX2 in OA articular chondrocytes, in comparison to untreated OA articular chondrocytes.; [−] denotes the absence of a significant effort or a significantly decreased expression of chondrogenic marker BAPX1/NKX3.2 or an increased expression of OA chondrocyte phenotypic markers ALP, MMP13, ADAMTS5, COX2, COL10A and RUNX2 in OA articular chondrocytes, in comparison to untreated OA articular chondrocytes; conditions: Table 2 (FIGS. 2-8), peptide 10 nM, 24 hours, vs untreated OA articular chondrocytes
Description: (§1) The action of 20-mer peptides (10 nM) of SEQ ID NO: 2-15 (peptides with 1 amino acids intervals (19 amino acid overlap)) and SEQ ID NO:49 on the expression of the indicated genes was determined on a validated pool of passage 2 OA human articular chondrocytes (n=18) and compared to full-length recombinant BMP-7 (1 nM). Samples were harvested after 24 hours and analyzed for indicated genes by RT-qPCR (corrected for 28S rRNA expression and relative to control conditions (no peptide exposure)). In the graphs, numbers on the x-axis represent individual peptides according to their SEQ ID NO:, error bars represent mean±SEM, statistical differences were calculated (one-way ANOVA with bonferroni correction) to control condition. *=p<0.05 lower than control condition for COL10A1, ALP, RUNX2, COX-2, MMP13 and ADAMTS5 and higher than control condition for BAPX1/NKX3.2. Random peptide is a peptide according to SEQ ID NO: 49 with amino acid sequence […].

[2] = test system: OA articular chondrocytes; parameters: key to ADAMTS5 expression: [+] denotes a significantly increased expression of chondrogenic marker BAPX1/NKX3.2 or a decreased expression of OA chondrocyte phenotypic markers ALP, MMP13, ADAMTS5, COX2, COL10A and RUNX2 in OA articular chondrocytes, in comparison to untreated OA articular chondrocytes.; [−] denotes the absence of a significant effort or a significantly decreased expression of chondrogenic marker BAPX1/NKX3.2 or an increased expression of OA chondrocyte phenotypic markers ALP, MMP13, ADAMTS5, COX2, COL10A and RUNX2 in OA articular chondrocytes, in comparison to untreated OA articular chondrocytes; conditions: Table 3, N- and C-terminally truncated peptides; vs untreated OA articular chondrocytes
[3] = test system: OA articular chondrocytes; parameters: key: [+] denotes a significantly increased expression of chondrogenic marker BAPX1/NKX3.2 or a decreased expression of OA chondrocyte phenotypic markers ALP, MMP13, ADAMTS5, COX2, COL10A and RUNX2 in OA articular chondrocytes, in comparison to untreated OA articular chondrocytes.; [−] denotes the absence of a significant effort or a significantly decreased expression of chondrogenic marker BAPX1/NKX3.2 or an increased expression of OA chondrocyte phenotypic markers ALP, MMP13, ADAMTS5, COX2, COL10A and RUNX2 in OA articular chondrocytes, in comparison to untreated OA articular chondrocytes; conditions: vs untreated OA articular chondrocytes
[4] = test system: OA articular chondrocytes; parameters: key: [—] denotes the absence of a significant effect or a significantly decreased expression of chondrogenic marker BAPX1/NKX3.2 or an increased expression of OA chondrocyte phenotypic markers ALP, MMP13, ADAMTS5, COX2, COL10A and RUNX2 in OA articular chondrocytes, in comparison to untreated OA articular chondrocyts; conditions: Table 1, 20-mer peptides with native cysteines; vs untreated OA articular chondrocytes
[5] = test system: OA articular chondrocytes; parameters: key: [—] denotes the absence of a significant effect or a significantly decreased expression of chondrogenic marker BAPX1/NKX3.2 or an increased expression of OA chondrocyte phenotypic markers ALP, MMP13, ADAMTS5, COX2, COL10A and RUNX2 in OA articular chondrocytes, in comparison to untreated OA articular chondrocyts; conditions: Table 1, 20-mer peptides with native cysteines; vs untreated OA articular chondrocytes; remark: listed apart in the source
Description: as §1

[6] = Table 3, N- and C-terminally truncated peptides

| Substance | ADAMTS5 expression [2] | ALP expression [3, 6] | BAPX1/NKX3.2 expression [3, 6] | COL10A expression [3, 6] | COX-2 expression [3, 6] | RUNX2 expression [3, 6] | MMP13 expression [3, 6] | other results |
| --- | --- | --- | --- | --- | --- | --- | --- | --- |
| 16 (YSEGESAFPLNS; homo sapiens) [compound 16] | + | + | + | + | + | + |  | ADAMTS5 expression [1]: +; ALP expression [1]: +; BAPX1/NKX3.2 expression [1]: +; COL10A expression [1]: +; COX-2 expression [1]: +; RUNX2 expression [1]: +; MMP13 expression ([3]; Table 2 (FIGS. 2-8), peptide 10 nM, 24 hours): + |
| 22 (AAYYSEGESAFPLNS; homo sapiens) [compound 22] | + | + | + | + | + | + | + |  |
| 23 (AYYSEGESAFPLNS; homo sapiens) [compound 23] | + | + | + | + | + | + | + |  |
| 24 (YYSEGESAFPLNS; homo sapiens) [compound 24] | + | + | + | + | + | + | + |  |
| 25 (YSEGESAFPLNS; homo sapiens) [compound 25] | + | + | + | + | + | + | + |  |
| 26 (YSEGESAFPLNSY; homo sapiens) [compound 26] | + | + | + | + | + | + | + |  |
| 27 (YSEGESAFPLNSYM; homo sapiens) [compound 27] | + | + | + | + | + | + | + |  |
| 28 (YSEGESAFPLNSYMN; homo sapiens) [compound 28] | + | + | + | + | + | + | + |  |
| 29 (YSEGESAFPLNSYMNA; homo sapiens) [compound 29] | + | + | + | + | + | + | + |  |
| 30 (YSEGESAFPLNSYMNAT; homo sapiens) [compound 30] | + | + | + | + | + | + | + |  |
| 31 (YSEGESAFPLNSYMNATN; homo sapiens) [compound 31] | + | + | + | + | + | + | + |  |
| 32 (YSEGESAFPLNSYMNATNH; homo sapiens) [compound 32] | + | + | + | + | + | + | + |  |
| 33 (YSEGESAFPLNSYMNATNHA; homo sapiens) [compound 33] | + | + | + | + | + | + | + |  |
| 34 (APEGYAAYYSEGESAFPLNSYMNATNHA; homo sapiens) [compound 34] | + | + | + | + | + | + | + |  |
| 35 (PEGYAAYYSEGESAFPLNSYMNATNHA; homo sapiens) [compound 35] | + | + | + | + | + | + | + |  |
| 36 (EGYAAYYSEGESAFPLNSYMNATNHA; homo sapiens) [compound 36] | + | + | + | + | + | + | + |  |
| 38 (EALRMANVAENSSSDQRQAC; homo sapiens) [compound 38] |  |  |  |  |  |  |  | ALP expression [4]: —; BAPX1/NKX3.2 expression [4]: —; COL10A expression [4]: —; COX-2 expression [4]: —; MMP13 expression [4]: —; RUNX2 expression [4]: —; ADAMTS5 expression [5]: — |
| 39 (ACKKHELYVSFRDLGWQDWI; homo sapiens) [compound 39] |  |  |  |  |  |  |  | ALP expression [4]: —; BAPX1/NKX3.2 expression [4]: —; COL10A expression [4]: —; COX-2 expression [4]: —; MMP13 expression [4]: —; RUNX2 expression [4]: —; ADAMTS5 expression [5]: — |
| 40 (WIIAPEGYAAYYCEGECAFP; homo sapiens) [compound 40] |  |  |  |  |  |  |  | ALP expression [4]: —; BAPX1/NKX3.2 expression [4]: —; COL10A expression [4]: —; COX-2 expression [4]: —; MMP13 expression [4]: —; RUNX2 expression [4]: —; ADAMTS5 expression [5]: — |
| 41 (FPLNSYMNATNHAIVQTLVH; homo sapiens) [compound 41] |  |  |  |  |  |  |  | ALP expression [4]: —; BAPX1/NKX3.2 expression [4]: —; COL10A expression [4]: —; COX-2 expression [4]: —; MMP13 expression [4]: —; RUNX2 expression [4]: —; ADAMTS5 expression [5]: — |
| 42 (VHFINPETVPKPCCAPTQLN; homo sapiens) [compound 42] |  |  |  |  |  |  |  | ALP expression [4]: —; BAPX1/NKX3.2 expression [4]: —; COL10A expression [4]: —; COX-2 expression [4]: —; MMP13 expression [4]: —; RUNX2 expression [4]: —; ADAMTS5 expression [5]: — |
